Source: patent publication US7741327B2 (Hoffmann-La Roche Inc., priority 2008, dated 2010)

Biological target: T1, Recombinant human liver GK1 (GST-GK) (Homo sapiens, UniProt P35557)
T1 construct: made in house; host or cells: E. coli
T1 sequence (P35557 1-466 isoform P35557-2): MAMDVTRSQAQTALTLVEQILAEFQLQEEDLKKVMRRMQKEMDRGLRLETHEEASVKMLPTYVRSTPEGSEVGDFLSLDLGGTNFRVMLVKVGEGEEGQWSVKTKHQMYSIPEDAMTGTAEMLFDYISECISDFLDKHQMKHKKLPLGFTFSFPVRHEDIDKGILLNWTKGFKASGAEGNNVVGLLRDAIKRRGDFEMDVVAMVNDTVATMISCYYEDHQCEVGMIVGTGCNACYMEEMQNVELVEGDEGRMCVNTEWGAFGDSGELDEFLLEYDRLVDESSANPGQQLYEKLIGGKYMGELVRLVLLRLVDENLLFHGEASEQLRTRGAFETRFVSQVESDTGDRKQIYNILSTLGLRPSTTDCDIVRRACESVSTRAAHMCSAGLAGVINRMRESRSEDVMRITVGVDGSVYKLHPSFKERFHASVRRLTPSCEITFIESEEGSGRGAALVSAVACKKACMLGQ
Assay: In vitro glucokinase activity (G6PDH-coupled NADH assay)
Format: biochemical
Settings: for SC1.5 (concentration of activator that produced a 50% increase in the activity of GK): 30° C., 5 mM D-glucose, 10% DMSO; for fold act. @ 30 μM: at 30 μM test compound
Method in brief: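 GST-tagged human liver GK1 from E. coli, assayed at 30° C in 25 mM Hepes pH 7.1 with 5 mM D-glucose, 1 mM ATP, 1.8 mM NAD and G6PDH coupling, 10% DMSO final; reaction started with enzyme after 10 min preincubation. NADH formation followed at OD340; SC1.5 is activator concentration giving 50% increase over DMSO control rate.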

SC1.5 (concentration of activator that produced a 50% increase in the activity of GK) [µM] | fold act. @ 30 μM [fold] | SMILES
12.232 |  | CC(C)NC1=CC(=O)N([C@@H](CC2CCCCC2)C(=O)Nc2ccn(CC(C)(C)O)n2)C1 [Example 232, (S)-3-cyclohexyl-N-[1-(2-hydroxy-2-methyl-propyl)-1H-pyrazol-3-yl]-2-(4-isopropylamino-2-oxo-2,5-dihydro-pyrrol-1-yl)-propionamide]
0.021 |  | CC(C)(O)Cn1ccc(NC(=O)[C@H](CC2CCCCC2)N2CC(Oc3cccc(Br)c3)=CC2=O)n1 [Example 205, (S)-2-[4-(3-bromo-phenoxy)-2-oxo-2,5-dihydro-pyrrol-1-yl]-3-cyclohexyl-N-[1-(2-hydroxy-2-methyl-propyl)-1H-pyrazol-3-yl]-propionamide]
0.033 |  | COc1ccccc1OC1=CC(=O)N([C@@H](CC2CCCCC2)C(=O)Nc2ccn(C)n2)C1 [Example 29, (S)-3-Cyclohexyl-N-(1-methyl-1H-pyrazol-3-yl)-2-[4-(2-methoxy-phenoxy)-2-oxo-2,5-dihydro-pyrrol-1-yl]-propionamide]
0.26 |  | Cc1cccc(OC2=CC(=O)N([C@@H](CC(C)C)C(=O)Nc3ccn(C[C@@H]4COC(C)(C)O4)n3)C2)c1F [Example 130, (S)-2-[4-(2-Fluoro-3-methyl-phenoxy)-2-oxo-2,5-dihydro-pyrrol-1-yl]-4-methyl-pentanoic acid [1-((R)-2,2-dimethyl-[1,3]dioxolan-4-yl-methyl)-1H-pyrazol-3-yl]-amide]
3.733 |  | CC(C)C[C@@H](C(=O)Nc1ccn(CC(C)(C)O)n1)N1CC(Oc2cccc(C#N)c2)=CC1=O [Example 138, (S)-2-[4-(3-Cyano-phenoxy)-2-oxo-2,5-dihydro-pyrrol-1-yl]-4-methyl-pentanoic acid [1-(2-hydroxy-2-methyl-propyl)-1H-pyrazol-3-yl]-amide]
0.097 |  | COC(=O)c1ccc(NC(=O)[C@H](CC(C)C)N2CC(Oc3c(F)cccc3F)=CC2=O)nc1 [Example 46, 6-{(S)-2-[4-(2,6-difluoro-phenoxy)-2-oxo-2,5-dihydro-pyrrol-1-yl]-4-methyl-pentanoylamino}-nicotinic acid methyl ester]
1.597 |  | CNC(=O)NC(=O)C(CC1CCCCC1)N1CC(Oc2cccc(OC)c2Cl)=CC1=O (stereo not shown) [Example 58, 1-{2-[4-(2-Chloro-3-methoxy-phenoxy)-2-oxo-2,5-dihydro-pyrrol-1-yl]-3-cyclohexyl-propionyl}-3-methyl-urea]
2.715 |  | CC(C)(O)Cn1ccc(NC(=O)[C@@H](C[C@H]2C[C@H](C)C2)N2CC(Oc3ccccc3Cl)=CC2=O)n1 (single isomer, unassigned) [Example 216]
0.025 |  | COC(=O)c1ccc(NC(=O)[C@H](CC2CCCCC2)N2CC(Oc3c(F)cccc3F)=CC2=O)nc1 [Example 39, 6-{(S)-3-Cyclohexyl-2-[4-(2,6-difluoro-phenoxy)-2-oxo-2,5-dihydro-pyrrol-1-yl]-propionylamino}-nicotinic acid methyl ester]
0.182 |  | CC(C)C[C@@H](C(=O)Nc1ccn(CC(C)(C)O)n1)N1CC(Oc2cccc(O)c2F)=CC1=O [Example 126, (S)-2-[4-(2-Fluoro-3-hydroxy-phenoxy)-2-oxo-2,5-dihydro-pyrrol-1-yl]-4-methyl-pentanoic acid [1-(2-hydroxy-2-methyl-propyl)-1H-pyrazol-3-yl]-amide]
0.21 |  | CC(C)C[C@@H](C(=O)Nc1ccn(C[C@@H]2COC(C)(C)O2)n1)N1CC(Oc2cccc(C3CC3)c2F)=CC1=O [Example 146, (S)-2-[4-(3-Cyclopropyl-2-fluoro-phenoxy)-2-oxo-2,5-dihydro-pyrrol-1-yl]-4-methyl-pentanoic acid [1-((R)-2,2-dimethyl-[1,3]dioxolan-4-yl-methyl)-1H-pyrazol-3-yl]-amide]
0.048 |  | O=C(O)c1ccc(NC(=O)[C@H](CC2CCCCC2)N2CC(Oc3c(F)cccc3Cl)=CC2=O)nc1 [Example 70, 6-{(S)-2-[4-(2-Chloro-6-fluoro-phenoxy)-2-oxo-2,5-dihydro-pyrrol-1-yl]-3-cyclohexyl-propionylamino}-nicotinic acid]
0.02 |  | CCOc1cccc(OC2=CC(=O)N([C@@H](CC(C)C)C(=O)Nc3ccn(CC(C)(C)O)n3)C2)c1F [Example 114, (S)-2-[4-(3-Ethoxy-2-fluoro-phenoxy)-2-oxo-2,5-dihydro-pyrrol-1-yl]-4-methyl-pentanoic acid [1-(2-hydroxy-2-methyl-propyl)-1H-pyrazol-3-yl]-amide]
0.617 |  | CC1(C)OC[C@@H](Cn2ccc(NC(=O)[C@H](Cc3c(F)cccc3F)N3CC(Oc4ccccc4Cl)=CC3=O)n2)O1 [Example 184, (S)-2-[4-(2-chloro-phenoxy)-2-oxo-2,5-dihydro-pyrrol-1-yl]-N-[1-((R)-2,2-dimethyl-[1,3]dioxolan-4-yl-methyl)-1H-pyrazol-3-yl]-3-(2,6-difluoro-phenyl)-propionamide]
1.125 |  | CC(C)C[C@@H](C(=O)Nc1ccn(C[C@@H](O)CO)n1)N1CC(Oc2cccc(CC(C)(C)O)c2)=CC1=O [Example 238, (S)-2-{4-[3-(2-Hydroxy-2-methyl-propyl)-phenoxy]-2-oxo-2,5-dihydro-pyrrol-1-yl}-4-methyl-pentanoic acid [1-((R)-2,3-dihydroxy-propyl)-1H-pyrazol-3-yl]-amide]
0.027 |  | CCOc1cccc(OC2=CC(=O)N([C@@H](CC(C)C)C(=O)Nc3ccn(C[C@@H](O)CO)n3)C2)c1F [Example 115, (S)-2-[4-(3-Ethoxy-2-fluoro-phenoxy)-2-oxo-2,5-dihydro-pyrrol-1-yl]-4-methyl-pentanoic acid [1-((R)-2,3-dihydroxy-propyl)-1H-pyrazol-3-yl]-amide]
4.287 |  | O=C(Nc1ccn(C[C@@H](O)CO)n1)C(CC(C(F)(F)F)C(F)(F)F)N1CC(Oc2ccccc2Cl)=CC1=O (stereo partly drawn) [Example 219, 2-[4-(2-Chloro-phenoxy)-2-oxo-2,5-dihydro-pyrrol-1-yl]-5,5,5-trifluoro-4-trifluoromethyl-pentanoic acid [1-((R)-2,3-dihydroxy-propyl)-1H-pyrazol-3-yl]-amide]
4.624 |  | CC(C)NC1=CC(=O)N([C@@H](CC2CCCC2)C(=O)Nc2ccn(CC(C)(C)O)n2)C1 [Example 234, (S)-3-cyclopentyl-N-[1-(2-hydroxy-2-methyl-propyl)-1H-pyrazol-3-yl]-2-(4-isopropylamino-2-oxo-2,5-dihydro-pyrrol-1-yl)-propionamide]
> 30 | 1.4 | O=C(Nc1ccn(C[C@@H](O)CO)n1)C(CC(F)(F)F)N1CC(Oc2ccccc2Cl)=CC1=O (stereo partly drawn) [Example 224, 2-[4-(2-Chloro-phenoxy)-2-oxo-2,5-dihydro-pyrrol-1-yl]-N-[1-((R)-2,3-dihydroxy-propyl)-1H-pyrazol-3-yl]-4,4,4-trifluoro-butyramide]
1.717 |  | CC(C)C[C@@H](C(=O)Nc1cnccn1)N1CC(Oc2cccc(C(O)CO)c2F)=CC1=O (stereo partly drawn) [Example 155, (S)-2-{4-[3-(1,2-Dihydroxy-ethyl)-2-fluoro-phenoxy]-2-oxo-2,5-dihydro-pyrrol-1-yl}-4-methyl-pentanoic acid pyrazin-2-ylamide]
> 30 | 1.4 | CC(C)C[C@@H](C(=O)Nc1nc(C2CC2)ns1)N1CC(Oc2ccccc2Cl)=CC1=O [Example 105, (S)-2-[4-(2-Chloro-phenoxy)-2-oxo-2,5-dihydro-pyrrol-1-yl]-4-methyl-pentanoic acid (3-cyclopropyl-[1,2,4]thiadiazol-5-yl)-amide]
0.796 |  | CC(C)C[C@@H](C(=O)Nc1ccn(C[C@@H]2COC(C)(C)O2)n1)N1CC(Oc2cccc(N(C)C)c2F)=CC1=O [Example 139, (S)-2-[4-(3-Dimethylamino-2-fluoro-phenoxy)-2-oxo-2,5-dihydro-pyrrol-1-yl]-4-methyl-pentanoic acid [1-((R)-2,2-dimethyl-[1,3]dioxolan-4-yl-methyl)-1H-pyrazol-3-yl]-amide]
0.028 |  | CC(C)(O)Cn1ccc(NC(=O)[C@H](CC2CCCCC2)N2CC(Oc3c(F)cccc3Cl)=CC2=O)n1 [Example 67, (S)-2-[4-(2-Chloro-6-fluoro-phenoxy)-2-oxo-2,5-dihydro-pyrrol-1-yl]-3-cyclohexyl-N-[1-(2-hydroxy-2-methyl-propyl)-1H-pyrazol-3-yl]-propionamide]
